According to patent publication US4760136A, “Chartreusin derivatives and salts thereof” (Ishihara Sangyo Kaisha, Ltd., priority 1984, dated 1988):
Like-named read-outs stand apart in the source and are kept apart here.

Tests used:
P-388 leukemia cells = experiment: Antitumor activity: P-388 leukemia cells inoculated intraperitoneally, drug administered intravenously, BDF1 mice; assay type: in vivo; conditions: Mus musculus, P388, iv, read-out: T/C (%) of MST; for response vs control in vivo at 20 mg/kg: dose b: 20 mg/kg × 3, i.v. on days 1, 5 and 9; for response vs control in vivo at 40 mg/kg: dose c: 40 mg/kg × 3, i.v. on days 1, 5 and 9
How it was run: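 Drug dosing was intravenous on the first, fifth and ninth days after intraperitoneal inoculation of P-388 leukemia cells (1×10^6 per mouse) into BDF1 mice. Vehicles were physiological saline alone, or saline with small amounts of sodium carboxymethyl cellulose or Tween-80.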

[1] = Acute toxicity, intravenous (once), ddY mice; assay type: in vivo; conditions: mouse, in vivo, formulated per Preparation Example
Source text: In Table 7 are shown acute toxicity values (LD50, mg/kg) in ddY mice in the case of intravenously administering (once) each of the compounds of this invention in the form of preparations shown in the Preparation Examples shown in Table 7.

[2] = dose f: 80 mg/kg × 3, i.v. on days 1, 5 and 9, BDF1 mice, P-388 i.p.

| SMILES | LD50 ([1]; iv) | response vs control in vivo at 20 mg/kg (P-388 leukemia cells; BDF1 mice, P-388 i.p.) | response vs control in vivo at 40 mg/kg (P-388 leukemia cells; BDF1 mice, P-388 i.p.) | further results |
| --- | --- | --- | --- | --- |
| COC(=O)c1ccc(C(=O)Oc2c3cccc(O[C@@H]4O[C@H](C)[C@@H]5OC(c6ccco6)O[C@@H]5[C@H]4O[C@H]4O[C@H](C)[C@H](O)[C@H](OC)[C@H]4O)c3c3oc(=O)c4c(C)ccc5oc(=O)c2c3c54)cc1 (stereo partly drawn) [compound 211] | ≥ 80 mg/kg |  |  | response vs control in vivo at 80 mg/kg (P-388 leukemia cells; [2]): 176% |
| C=CCCC(=O)Oc1c2cccc(O[C@@H]3O[C@H](C)[C@@H]4OC(c5ccc(Cl)cc5Cl)O[C@@H]4[C@H]3O[C@H]3O[C@H](C)[C@H](O)[C@H](OC)[C@H]3O)c2c2oc(=O)c3c(C)ccc4oc(=O)c1c2c43 (stereo partly drawn) [compound 217] |  |  |  | response vs control in vivo at 80 mg/kg (P-388 leukemia cells): 181%; LD50 [1]: ≥ 80 mg/kg |
| CCCCC(CC)C(=O)Oc1c2cccc(OC3OC(C)C4OC(C)(C)OC4C3OC3OC(C)C(O)C(OC)C3O)c2c2oc(=O)c3c(C)ccc4oc(=O)c1c2c43 (stereo not drawn) [compound 239] | ≥ 60 mg/kg |  |  | response vs control in vivo at 60 mg/kg (P-388 leukemia cells; dose e: 60 mg/kg × 3, i.v. on days 1, 5 and 9, BDF1 mice, P-388 i.p.): 153% |
| COC1C(O)C(C)OC(OC2C(Oc3cccc4c(OC(=O)COC(=O)CCCl)c5c(=O)oc6ccc(C)c7c(=O)oc(c34)c5c67)OC(C)C3OC(c4ccccc4)OC32)C1O (stereo not drawn) [Compound No. 149] | ≥ 40 mg/kg | 203% |  |  |
| COC1C(O)C(C)OC(OC2C(Oc3cccc4c(OC(=O)C(C)CNC(=O)c5ccccc5)c5c(=O)oc6ccc(C)c7c(=O)oc(c34)c5c67)OC(C)C3OC(c4ccccc4)OC32)C1O (stereo not drawn) [Compound No. 13] | ≥ 40 mg/kg | 186% | 262% |  |
| COC1C(O)C(C)OC(OC2C(Oc3cccc4c(OC(=O)CCNC(=O)c5ccccc5)c5c(=O)oc6ccc(C)c7c(=O)oc(c34)c5c67)OC(C)C3OC(c4cccc(F)c4)OC32)C1O (stereo not drawn) [Compound No. 47, 6-O-(N-benzoyl-β-alanyl)-3',4'-O-(m-fluorobenzylidene)-chartreusin] | ≥ 80 mg/kg |  | 150% | response vs control in vivo at 80 mg/kg (P-388 leukemia cells; [2]): 210% |
| COC1C(O)C(C)OC(OC2C(Oc3cccc4c(OC(=O)C(C)(C)C)c5c(=O)oc6ccc(C)c7c(=O)oc(c34)c5c67)OC(C)C3OC(c4ccccc4)OC32)C1O (stereo not drawn) [Compound No. 170] | ≥ 40 mg/kg | 198% |  |  |
| COC1C(O)C(C)OC(OC2C(Oc3cccc4c(OC(=O)C(C)CNC(=O)C(F)(F)F)c5c(=O)oc6ccc(C)c7c(=O)oc(c34)c5c67)OC(C)C3OC(C)(C)OC32)C1O (stereo not drawn) [compound 85] | ≥ 100 mg/kg |  |  | response vs control in vivo at 80 mg/kg (P-388 leukemia cells; [2]): 157% |
| COC1C(O)C(C)OC(OC2C(Oc3cccc4c(OC(=O)CN(C)C(=O)C(F)(F)F)c5c(=O)oc6ccc(C)c7c(=O)oc(c34)c5c67)OC(C)C3OC(c4ccccc4)OC32)C1O (stereo not drawn) [Compound No. 25] | ≥ 40 mg/kg | 212% |  |  |
| CO[C@H]1[C@@H](O)[C@@H](C)O[C@H](O[C@H]2[C@H](Oc3cccc4c(OC(=O)c5ccc(C(F)(F)F)cc5)c5c(=O)oc6ccc(C)c7c(=O)oc(c34)c5c67)O[C@H](C)[C@@H]3OC(c4ccccc4)O[C@@H]32)[C@@H]1O (stereo partly drawn) [compound 195] | ≥ 40 mg/kg |  | 165% |  |
| COC1C(O)C(C)OC(OC2C(Oc3cccc4c(OC(=O)C(C)CN(C(=O)OCc5ccccc5)C(C)C)c5c(=O)oc6ccc(C)c7c(=O)oc(c34)c5c67)OC(C)C3OC(c4ccccc4)OC32)C1O (stereo not drawn) [Compound No. 135, 6-O-(N-Carbobenzyloxy-N-Isopropyl-β-Amino-isobutyryl)-3',4'-O-benzylidenechartreusin] | ≥ 40 mg/kg | 167% |  |  |
| COC1C(O)C(C)OC(OC2C(Oc3cccc4c(OC(=O)CCCCNC(=O)C(F)(F)F)c5c(=O)oc6ccc(C)c7c(=O)oc(c34)c5c67)OC(C)C3OC(c4ccccc4)OC32)C1O (stereo not drawn) [Compound No. 43] | ≥ 40 mg/kg | 226% |  |  |
| CO[C@H]1[C@@H](O)[C@@H](C)O[C@H](O[C@H]2[C@H](Oc3cccc4c(OC(=O)c5ccc([N+](=O)[O-])cc5)c5c(=O)oc6ccc(C)c7c(=O)oc(c34)c5c67)O[C@H](C)[C@@H]3OC(c4ccccc4)O[C@@H]32)[C@@H]1O (stereo partly drawn) [Compound No. 186] | ≥ 80 mg/kg |  | 176% |  |
| COC1C(O)C(C)OC(OC2C(Oc3cccc4c(OC(=O)CCCl)c5c(=O)oc6ccc(C)c7c(=O)oc(c34)c5c67)OC(C)C3OC(c4ccccc4)OC32)C1O (stereo not drawn) [Compound No. 164] | ≥ 40 mg/kg | 198% |  |  |
| CC=CC=CC(=O)Oc1c2cccc(OC3OC(C)C4OC(C)(C)OC4C3OC3OC(C)C(O)C(OC)C3O)c2c2oc(=O)c3c(C)ccc4oc(=O)c1c2c43 (stereo not drawn) [compound 238] | ≥ 80 mg/kg |  | 130% | response vs control in vivo at 80 mg/kg (P-388 leukemia cells; [2]): 192% |
